Target: T1, F508del (Homo sapiens, UniProt P13569, DEL508-508)
T1 construct: expressed in transfected cells
Assay: Membrane potential optical assay (FRET voltage-sensor dyes), identification of correction compounds
Assay type: cell-based
Details: NIH3T3 cells stably expressing F508del, procedures described above; for Emax: maximum efficacy, read-out: Max Efficacy; for EC50: modulation of CFTR activity
Procedure: (§1) NIH3T3 mouse fibroblasts stably expressing F508del are used for optical measurements of membrane potential. The cells are maintained at 37° C. in 5% CO2 and 90% humidity in Dulbecco's modified Eagle's medium supplemented with 2 mM glutamine, 10% fetal bovine serum, 1×NEAA, β-ME, 1× pen/strep, and 25 mM HEPES in 175 cm^2 culture flasks. For all optical assays, the cells were seeded at 12,000 cells/well in 384-well matrigel-coated plates and cultured for 18-24 hrs at 37° C. for the potentiator assay. For the correction assays, the cells are cultured at 37° C. with and without compounds for 18-24 hours.
Membrane potential optical methods for assaying F508del modulation properties of compounds.
The optical membrane potential assay utilized voltage-sensitive FRET sensors described by Gonzalez and Tsien (See Gonzalez, J. E. and R. Y. Tsien (1995) “Voltage sensing by fluorescence resonance energy transfer in single cells” Biophys J 69(4): 1272-80, and Gonzalez, J. E. and R. Y. Tsien (1997) “Improved indicators of cell membrane potential that use fluorescence resonance energy transfer” Chem Biol 4(4): 269-77) in combination with instrumentation for measuring fluorescence changes such as the Voltage/Ion Probe Reader (VIPR) (See, Gonzalez, J. E., K. Oades, et al. (1999) “Cell-based assays and instrumentation for screening ion-channel targets” Drug Discov Today 4(9): 431-439).
These voltage sensitive assays are based on the change in fluorescence resonant energy transfer (FRET) between the membrane-soluble, voltage-sensitive dye, DiSBAC2(3), and a fluorescent phospholipid, CC2-DMPE, which is attached to the outer leaflet of the plasma membrane and acts as a FRET donor. Changes in membrane potential (Vm) cause the negatively charged DiSBAC2(3) to redistribute across the plasma membrane and the amount of energy transfer from CC2-DMPE changes accordingly. The changes in fluorescence emission were monitored using VIPR™ II, which is an integrated liquid handler and fluorescent detector designed to conduct cell-based screens in 96- or 384-well microtiter plates.
To identify small molecules that correct the trafficking defect associated with F508del; a single-addition HTS assay format was developed. The cells were incubated in serum-free medium for 16 hrs at 37° C. in the presence or absence (negative control) of test compound. As a positive control, cells plated in 384-well plates were incubated for 16 hrs at 27° C. to “temperature-correct” F508del. The cells were subsequently rinsed 3× with Krebs Ringers solution and loaded with the voltage-sensitive dyes. To activate F508del, 10 μM forskolin and the CFTR potentiator, genistein (20 μM), were added along with Cl^−-free medium to each well. The addition of Cl^−-free medium promoted Cl^− efflux in response to F508del activation and the resulting membrane depolarization was optically monitored using the FRET-based voltage-sensor dyes.
• Bath Solution #1: (in mM) NaCl 160, KCl 4.5, CaCl2 2, MgCl2 1, HEPES 10, pH 7.4 with NaOH. • Chloride-free bath solution: Chloride salts in Bath Solution #1 (above) are substituted with gluconate salts. • CC2-DMPE: Prepared as a 10 mM stock solution in DMSO and stored at −20° C. • DiSBAC2(3): Prepared as a 10 mM stock in DMSO and stored at −20° C. Cell Culture
as §1, with “seeded at 30,000/well in 384-well” for “seeded at 12,000 cells/well in 384-well”, “cultured for 2 hrs at” for “cultured for 18-24 hrs at”, “37° C. before culturing at 27° C. for 24 hrs for the” for “37° C. for the”, “cultured at 27° C. or 37° C.” for “cultured at 37° C.”, “compounds for 16-24 hours.” for “compounds for 18-24 hours.”

T1 sequence (P13569 with tags, fused parts or gaps DEL508-508): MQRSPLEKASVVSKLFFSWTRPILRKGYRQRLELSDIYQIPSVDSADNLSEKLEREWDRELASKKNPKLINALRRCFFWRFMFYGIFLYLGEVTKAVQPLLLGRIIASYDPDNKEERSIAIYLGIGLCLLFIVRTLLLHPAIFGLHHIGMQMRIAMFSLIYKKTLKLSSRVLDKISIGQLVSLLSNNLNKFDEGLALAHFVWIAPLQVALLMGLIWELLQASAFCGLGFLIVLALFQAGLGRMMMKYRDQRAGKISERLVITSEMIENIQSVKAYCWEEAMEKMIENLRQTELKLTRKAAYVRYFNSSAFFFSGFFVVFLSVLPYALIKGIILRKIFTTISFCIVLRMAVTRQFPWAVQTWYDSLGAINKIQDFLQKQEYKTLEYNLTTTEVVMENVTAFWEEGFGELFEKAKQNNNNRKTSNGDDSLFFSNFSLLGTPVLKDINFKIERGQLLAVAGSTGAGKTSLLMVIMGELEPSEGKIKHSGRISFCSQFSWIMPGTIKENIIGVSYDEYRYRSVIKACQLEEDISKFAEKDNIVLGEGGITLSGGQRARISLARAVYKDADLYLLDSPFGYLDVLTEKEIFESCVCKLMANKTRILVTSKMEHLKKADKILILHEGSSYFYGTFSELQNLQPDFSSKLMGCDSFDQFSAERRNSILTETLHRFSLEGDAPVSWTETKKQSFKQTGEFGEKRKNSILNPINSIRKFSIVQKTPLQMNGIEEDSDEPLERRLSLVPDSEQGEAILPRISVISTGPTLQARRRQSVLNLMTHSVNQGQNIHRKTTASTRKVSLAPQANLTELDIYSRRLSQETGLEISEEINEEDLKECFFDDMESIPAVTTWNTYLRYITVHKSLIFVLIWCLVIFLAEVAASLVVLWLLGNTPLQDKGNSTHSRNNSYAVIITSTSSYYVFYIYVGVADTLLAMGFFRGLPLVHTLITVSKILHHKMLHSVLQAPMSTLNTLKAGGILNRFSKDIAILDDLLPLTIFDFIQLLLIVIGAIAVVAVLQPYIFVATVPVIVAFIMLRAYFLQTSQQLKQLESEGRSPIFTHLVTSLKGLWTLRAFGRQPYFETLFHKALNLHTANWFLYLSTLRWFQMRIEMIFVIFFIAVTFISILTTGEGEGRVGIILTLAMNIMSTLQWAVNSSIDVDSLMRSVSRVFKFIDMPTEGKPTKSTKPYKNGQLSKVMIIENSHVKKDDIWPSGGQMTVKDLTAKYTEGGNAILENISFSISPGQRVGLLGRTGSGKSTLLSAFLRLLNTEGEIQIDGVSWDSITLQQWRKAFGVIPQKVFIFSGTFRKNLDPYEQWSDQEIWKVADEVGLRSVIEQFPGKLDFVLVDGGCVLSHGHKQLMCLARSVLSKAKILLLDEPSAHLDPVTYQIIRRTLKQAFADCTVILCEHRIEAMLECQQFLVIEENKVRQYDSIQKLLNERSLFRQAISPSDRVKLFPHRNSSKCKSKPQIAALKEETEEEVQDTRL

Compound	Emax	EC50
C=CCOc1nc(-c2cc(F)cc(OCC(C)C)c2)ccc1C(=O)NS(=O)(=O)c1cccc(N)n1 [Compound 43, 2-allyloxy-N-[(6-amino-2-pyridyl)sulfonyl]-6-(3-fluoro-5-isobutoxy-phenyl)pyridine-3-carboxamide]	30 to 80%	< 3 µM
CCCC(C)Oc1nc(-c2cc(F)cc(OCC(C)C)c2)ccc1C(=O)NS(=O)(=O)c1cccc(N)n1 (centres unmarked) [Compound 56, N-[(6-amino-2-pyridyl)sulfonyl]-6-(3-fluoro-5-isobutoxy-phenyl)-2-(1-methylbutoxy)pyridine-3-carboxamide]	> 80%	< 3 µM
CC(C)COc1cc(F)cc(-c2ccc(C(=O)NS(=O)(=O)c3cccc(N)n3)c(OC/C=C/C(F)(F)F)n2)c1 [Compound 83, N-[(6-amino-2-pyridyl)sulfonyl]-6-(3-fluoro-5-isobutoxy-phenyl)-2-[(E)-4,4,4-trifluorobut-2-enoxy]pyridine-3-carboxamide]	30 to 80%	< 3 µM
CC(C)Oc1ccc(-c2ccc(C(=O)NS(=O)(=O)c3cccc(N)n3)c(N(C)C(C)C)n2)cn1 [Compound 70, N-[(6-amino-2-pyridyl)sulfonyl]-6-(6-isopropoxy-3-pyridyl)-2-[isopropyl(methyl)amino]pyridine-3-carboxamide]	30 to 80%	3 to 10 µM
CC[C@H](C)Oc1nc(-c2cc(F)cc(OCC(C)C)c2)ccc1C(=O)NS(=O)(=O)c1cccc(N)n1 [Compound 29, N-[(6-amino-2-pyridyl)sulfonyl]-6-(3-fluoro-5-isobutoxy-phenyl)-2-[(1S)-1-methylpropoxy]pyridine-3-carboxamide]	30 to 80%	< 3 µM
CC(C)Oc1nc(C(C)(C)C)ccc1C(=O)NS(=O)(=O)c1cccc(N)n1 [Compound 45, N-[(6-amino-2-pyridyl)sulfonyl]-6-tert-butyl-2-isopropoxy-pyridine-3-carboxamide]	30 to 80%	3 to 10 µM
CC(C)COc1cc(F)cc(-c2ccc(C(=O)NS(=O)(=O)c3cccc(N)n3)c(OCCC(C)(C)C)n2)c1 [Compound 3, N-[(6-amino-2-pyridyl)sulfonyl]-2-(3,3-dimethylbutoxy)-6-(3-fluoro-5-isobutoxy-phenyl)pyridine-3-carboxamide]	> 80%	< 3 µM
COCC(C)Oc1nc(-c2cc(F)cc(OCC(C)C)c2)ccc1C(=O)NS(=O)(=O)c1cccc(N)n1 (centres unmarked) [Compound 23, N-[(6-amino-2-pyridyl)sulfonyl]-6-(3-fluoro-5-isobutoxy-phenyl)-2-(2-methoxy-1-methyl-ethoxy)pyridine-3-carboxamide]	30 to 80%	3 to 10 µM
CCCCCNc1nc(-c2cc(F)cc(OCC(C)C)c2)ccc1C(=O)NS(=O)(=O)c1cccc(N)n1 [Compound 84, N-[(6-amino-2-pyridyl)sulfonyl]-6-(3-fluoro-5-isobutoxy-phenyl)-2-(pentylamino)pyridine-3-carboxamide]	> 80%	3 to 10 µM
CC(C)COc1cc(F)cc(-c2ccc(C(=O)NS(=O)(=O)c3cccc(N)n3)c(N(C)[C@H](C)C(F)(F)F)n2)c1 [Compound 75, N-[(6-amino-2-pyridyl)sulfonyl]-6-(3-fluoro-5-isobutoxy-phenyl)-2-[methyl-[(1R)-2,2,2-trifluoro-1-methyl-ethyl]amino]pyridine-3-carboxamide]	> 80%	< 3 µM
C=C(C)COc1nc(-c2cc(F)cc(OCC(C)C)c2)ccc1C(=O)NS(=O)(=O)c1cccc(N)n1 [Compound 49, N-[(6-amino-2-pyridyl)sulfonyl]-6-(3-fluoro-5-isobutoxy-phenyl)-2-(2-methylallyloxy)pyridine-3-carboxamide]	> 80%	< 3 µM
CC(C)COc1cc(F)cc(-c2ccc(C(=O)NS(=O)(=O)c3cccc(N)n3)c(N(C)CC(F)(F)F)n2)c1 [Compound 66, N-[(6-amino-2-pyridyl)sulfonyl]-6-(3-fluoro-5-isobutoxy-phenyl)-2-[methyl(2,2,2-trifluoroethyl)amino]pyridine-3-carboxamide]	> 80%	< 3 µM
CCC(CC)Oc1nc(-c2cc(F)cc(OCC(C)C)c2)ccc1C(=O)NS(=O)(=O)c1cccc(N)n1 [Compound 47, N-[(6-amino-2-pyridyl)sulfonyl]-2-(1-ethylpropoxy)-6-(3-fluoro-5-isobutoxy-phenyl)pyridine-3-carboxamide]	> 80%	< 3 µM
CCN(CC)c1nc(-c2cc(F)cc(OCC(C)C)c2)ccc1C(=O)NS(=O)(=O)c1ccn[nH]1 [Compound 46, 2-(diethylamino)-6-(3-fluoro-5-isobutoxy-phenyl)-N-(1H-pyrazol-5-ylsulfonyl)pyridine-3-carboxamide]	30 to 80%	< 3 µM
CCN(c1nc(-c2cc(F)cc(OCC(C)C)c2)ccc1C(=O)NS(=O)(=O)c1cccc(N)n1)C(C)C [Compound 74, N-[(6-amino-2-pyridyl)sulfonyl]-2-[ethyl(isopropyl)amino]-6-(3-fluoro-5-isobutoxy-phenyl)pyridine-3-carboxamide]	> 80%	< 3 µM
CC(C)COc1cc(F)cc(-c2ccc(C(=O)NS(=O)(=O)c3cccc(N)n3)c3nc(C(F)(F)F)cn23)c1 [Compound 7, N-[(6-amino-2-pyridyl)sulfonyl]-5-(3-fluoro-5-isobutoxy-phenyl)-2-(trifluoromethyl)imidazo[1,2-a]pyridine-8-carboxamide]	30 to 80%	< 3 µM
CC(C)COc1cc(F)cc(-c2ccc(C(=O)NS(=O)(=O)c3cccc(N)n3)c(OC(C)C(F)(F)C(F)F)n2)c1 (centres unmarked) [Compound 6, N-[(6-amino-2-pyridyl)sulfonyl]-6-(3-fluoro-5-isobutoxy-phenyl)-2-(2,2,3,3-tetrafluoro-1-methyl-propoxy)pyridine-3-carboxamide]	30 to 80%	< 3 µM
CC(C)COc1cc(F)cc(-c2ccc(C(=O)NS(=O)(=O)c3cccc(N)n3)c(N(C)CC(C)(C)C)n2)c1 [Compound 52, N-[(6-amino-2-pyridyl)sulfonyl]-2-[2,2-dimethylpropyl(methyl)amino]-6-(3-fluoro-5-isobutoxy-phenyl)pyridine-3-carboxamide]	> 80%	< 3 µM
CC(C)COc1cc(F)cc(-c2ccc(C(=O)NS(=O)(=O)c3cccc(N)n3)c(NC(C)C(C)C)n2)c1 (centres unmarked) [Compound 54, N-[(6-amino-2-pyridyl)sulfonyl]-2-(1,2-dimethylpropylamino)-6-(3-fluoro-5-isobutoxy-phenyl)pyridine-3-carboxamide]	30 to 80%	3 to 10 µM
CC#CCCOc1nc(-c2cc(F)cc(OCC(C)C)c2)ccc1C(=O)NS(=O)(=O)c1cccc(N)n1 [Compound 35, N-[(6-amino-2-pyridyl)sulfonyl]-6-(3-fluoro-5-isobutoxy-phenyl)-2-pent-3-ynoxy-pyridine-3-carboxamide]	30 to 80%	< 3 µM
CCN(c1nc(-c2ccc(OC(C)C)nc2)ccc1C(=O)NS(=O)(=O)c1cccc(N)n1)C(C)C [Compound 14, N-[(6-amino-2-pyridyl)sulfonyl]-2-[ethyl(isopropyl)amino]-6-(6-isopropoxy-3-pyridyl)pyridine-3-carboxamide]	30 to 80%	< 3 µM
CCC(C)C(C)Oc1nc(-c2cc(F)cc(OCC(C)C)c2)ccc1C(=O)NS(=O)(=O)c1cccc(N)n1 (centres unmarked) [Compound 12, N-[(6-amino-2-pyridyl)sulfonyl]-2-(1,2-dimethylbutoxy)-6-(3-fluoro-5-isobutoxy-phenyl)pyridine-3-carboxamide]	> 80%	< 3 µM
